Laboratory results: publication PMC11440035, “Interaction of myricetin, ampelopsin (dihydromyricetin), and their sulfate metabolites with serum albumin, cytochrome P450 (CYP2C9, 2C19, and 3A4) enzymes, and organic anion‐transporting polypeptides (OATP1B1 and OATP2B1)” (Pharmacology Research & Perspectives, 2024)
pIC50: −log10 of the molar value. “And” between values parts separate entries of the source, which are not always exact repeats. Equal entries are not always repeated.

Target: T1, OATP1B1 (Homo sapiens, UniProt Q9Y6L6)
T1 construct: expressed in transfected cells; host or cells: A431
T1 sequence (Q9Y6L6 1-691): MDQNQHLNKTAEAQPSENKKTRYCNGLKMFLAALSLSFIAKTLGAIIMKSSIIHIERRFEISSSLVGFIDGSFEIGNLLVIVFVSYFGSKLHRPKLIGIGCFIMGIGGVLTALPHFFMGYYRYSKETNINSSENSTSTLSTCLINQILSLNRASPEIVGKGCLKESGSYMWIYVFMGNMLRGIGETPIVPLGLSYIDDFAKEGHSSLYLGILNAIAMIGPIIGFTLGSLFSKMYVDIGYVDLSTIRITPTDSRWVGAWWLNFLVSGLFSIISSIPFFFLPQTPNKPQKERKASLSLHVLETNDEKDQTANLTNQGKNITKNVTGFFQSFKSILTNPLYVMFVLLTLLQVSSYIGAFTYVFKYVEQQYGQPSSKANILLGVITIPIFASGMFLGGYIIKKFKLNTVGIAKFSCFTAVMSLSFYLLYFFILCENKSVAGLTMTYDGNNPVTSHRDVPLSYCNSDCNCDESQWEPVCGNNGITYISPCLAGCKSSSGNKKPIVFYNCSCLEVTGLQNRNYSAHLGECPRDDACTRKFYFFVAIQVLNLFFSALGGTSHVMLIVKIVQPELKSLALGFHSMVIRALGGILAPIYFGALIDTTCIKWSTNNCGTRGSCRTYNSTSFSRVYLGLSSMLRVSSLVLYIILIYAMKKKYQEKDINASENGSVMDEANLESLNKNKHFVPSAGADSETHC
Test: Inhibition of OATP1B1-mediated disulfopyrene uptake in A431 cells
Type: cell-based
Conditions: for decrease in the transport activity of OATP1B1 / inhibition of OATP1B1 in words: 25 μM flavonoid; for pIC50: disulfopyrene 10 μM, 10 min, HBSS pH 7.4, A431-OATP1B1 cells
Method: Human A431 cells overexpressing OATPs (OATP1B1 or OATP2B1) and their mock‐transfected controls were established earlier.[42], [43] The cells were maintained at 37°C with 5% CO2 in Dulbecco's Modified Eagle Medium (DMEM; Thermo Fischer Scientific, Waltham, MA, USA) supplemented with fetal bovine serum (10%), L‐glutamine (2 mM), penicillin (100 units/mL) and streptomycin (100 μg/mL).
The inhibitory impacts of MYR, AMP, and their sulfate metabolites on OATP1B1 and OATP2B1 were examined using the fluorescent dye substrates disulfopyrene (6,8‐dihydroxy‐1,3‐disulfopyrene) and pyranine, respectively.[42], [43] The day before the transport measurements, A431 cells overexpressing OATP1B1 or OATP2B1 (and their mock‐transfected controls) were seeded onto 96‐well plates at a density of 80 000 cells/well in DMEM (200 μL). Next day, the medium was removed, the cells were washed three times with PBS (pH 7.4, 200 μL) at room temperature, then the cells were pre‐incubated with 50 μL of Hank's Balanced Salt Solution (HBSS, pH 7.4; OATP1B1) or uptake buffer (pH 5.5; OATP2B1) for 5 min at 37°C with or without the flavonoids.[43] The transport reaction was started by adding 50 μL of disulfopyrene‐containing (final concentration: 10 μM) HBSS (OATP1B1 assay), or pyranine‐containing (final concentration: 20 μM) uptake buffer (OATP2B1 assay). After 10 min (OATP1B1) or 15 min (OATP2B1), the transport was stopped by removing the supernatant and washing the cells three times with ice‐cold PBS (200 μL). Then the fluorescence was measured in 200 μL of PBS using an Enspire plate reader (PerkinElmer, Waltham, MA, US) at excitation and emission wavelengths of 460/510 nm. OATP‐dependent transport was determined by subtracting the fluorescence detected in mock control cells from that of OATP‐expressing cells. Transport activity was measured based on the fluorescence signal in the absence of flavonoids (100%). IC50 values were calculated by sigmoidal fitting (Hill1), using the Origin software (version 2018, OriginLab Corporation, Northampton, MA, USA).

Compound | decrease in the transport activity of OATP1B1 | inhibition of OATP1B1 in words | pIC50 | inhibitory strength on OATP1B1 relative to MYR (ratio of IC50 values)
O=C1c2c(O)cc(O)cc2O[C@H](c2cc(O)c(O)c(O)c2)[C@H]1O [AMP, ampelopsin] | approximately 40% | – | – | –
O=c1c(O)c(-c2cc(O)c(O)c(O)c2)oc2cc(O)cc(O)c12 [MYR, myricetin] | – | close to complete inhibition | 5.19 | –
O=c1c(O)c(-c2cc(O)c(O)c(OS(=O)(=O)O)c2)oc2cc(O)cc(O)c12 [M3′S, myricetin‐3′‐O‐sulfate] | – | close to complete inhibition | 5.77 and 5.78 | four‐fold stronger
O=C1c2c(O)cc(O)cc2OC(c2cc(O)c(OS(=O)(=O)O)c(O)c2)C1O (stereo not shown) [A4′S, ampelopsin‐4′‐O‐sulfate] | ~70% | – | – | –
